Measured values: patent US20240368120A1 (Terns Pharmaceuticals, Inc., priority 2023, published 2024)

Columns and labels:
human GLP-1R receptor = molecular target: T1, human GLP-1R receptor (Homo sapiens, UniProt P43220); experiment: GLP-1R low expression cell assay (cAMP TR-FRET, CHO-K1_hGLP-1Rlow_clone10 cells); type: cell-based; conditions: for EC50: cAMP TR-FRET, 30 min at 25° C.; for Emax: maximum activation relative to control GLP-1 peptide agonist
T1 construct: expressed in transfected cells
T1 sequence (P43220 24-463): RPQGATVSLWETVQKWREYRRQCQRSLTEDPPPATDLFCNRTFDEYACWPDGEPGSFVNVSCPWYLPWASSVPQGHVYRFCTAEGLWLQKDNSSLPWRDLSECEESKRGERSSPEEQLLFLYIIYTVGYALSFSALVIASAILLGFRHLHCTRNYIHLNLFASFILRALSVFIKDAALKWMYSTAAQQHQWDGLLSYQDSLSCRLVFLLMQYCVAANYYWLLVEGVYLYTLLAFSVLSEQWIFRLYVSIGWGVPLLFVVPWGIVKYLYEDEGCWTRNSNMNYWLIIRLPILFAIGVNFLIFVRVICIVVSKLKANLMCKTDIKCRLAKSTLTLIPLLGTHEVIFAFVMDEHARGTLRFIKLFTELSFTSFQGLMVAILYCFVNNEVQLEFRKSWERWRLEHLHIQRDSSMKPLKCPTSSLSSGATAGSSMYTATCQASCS
In short: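 Readout is cAMP TR-FRET after 30 min compound stimulation at 25 °C of a low-GLP-1R-expressing CHO-K1 clone (1,000 cells/well), with 10-point 3-fold serial dilutions. Percent activation versus a control GLP-1 peptide, from duplicates, was Hill-fitted to give EC50.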

[1] = Rat pharmacokinetics, oral dosing; type: in vivo, Sprague-Dawley rats; conditions: male, Sprague-Dawley, oral dosing at 3 mg/kg, plasma; for half-life: read-out: Rat T1/2
Procedure: Intravenous dosing: Compounds were formulated at 1.0 mg/mL in a solution comprising 5% polyethylene glycol 400 and 95% (12% (w/v) sulfobutyl-β-cyclodextrin in water) (v/v). Formulated compounds were sterile filtered through a 0.22 micron filter before dosing. Compounds were administered to male, 7-11-week-old Sprague-Dawley rats by jugular vein cannula infusion over 30 minutes at a dose of 1 mg/kg. Oral dosing: Compounds were formulated at 1.0 mg/mL in a solution comprising 5% polyethylene glycol 400 and 95% (12% (w/v) sulfobutyl-β-cyclodextrin in water) (v/v). Formulated compounds were administered to male, 7-11 week old Sprague-Dawley rats by oral gavage at a dose of 10 mg/kg or 3 mg/kg.
Sample collection: Blood collections of about 0.2 mL per time point were performed from jugular vein or other suitable site of each animal, into pre-chilled commercial EDTA-K2 tubes and placed on wet ice until centrifugation. Blood samples were processed for plasma by centrifugation at approximately 4° C., 3,200 g for 10 min. Plasma was collected and transferred into pre-labeled 96 well plate or polypropylene tubes, quick frozen over dry ice and kept at −60° C. or lower until
Data analysis: Plasma concentration versus time data was plotted in graph and analyzed by non-compartmental approaches using the Phoenix WinNonlin 6.3 software program. Related PK parameters were calculated according to dosing route, e.g., CL, Vdss and C0 for intravenous administration, Cmax, Tmax or % F for extravascular administration, and T1/2, AUC(0-t), AUC(0-inf), MRT(0-t), MRT(0-inf) for all routes.

Which results are given for `COc1cc(C(=O)O)cc2c1nc(CN1CCC(c3cccc(OCc4ccc(Cl)cc4F)n3)CC1)n2C` [Compound 249, 2-((4-(6-((4-Chloro-2-fluorobenzyl)oxy)pyridin-2-yl)piperidin-1-yl)methyl)-4-methoxy-1-methyl-1H-benzo[d]imidazole-6-carboxylic acid]?
EC50 (human GLP-1R receptor): < 10 nM; Emax (human GLP-1R receptor): > 85%; Cmax [1]: > 5000 ng/mL; half-life [1]: 90 to 150 min; bioavailability [1]: > 85%

What does the source list for `Cn1c(CN2CCC(c3ccc(F)c(OCc4ccc(Cl)cc4F)c3)CC2)nc2c(OC(F)F)cc(C(=O)O)cc21` [Compound 216, 2-((4-(3-((4-Chloro-2-fluorobenzyl)oxy)-4-fluorophenyl)piperidin-1-yl)methyl)-4-(difluoromethoxy)-1-methyl-1H-benzo[d]imidazole-6-carboxylic acid]?
EC50 (human GLP-1R receptor): 10 to 100 nM; Emax (human GLP-1R receptor): > 85%; Cmax [1]: > 5000 ng/mL; half-life [1]: 90 to 150 min; bioavailability [1]: 50 to 85%

With `Cn1c(CN2CCC(c3cccc4c3OC(c3ccc(Cl)cc3F)C=C4)CC2)nc2c(OC(F)F)cc(C(=O)O)cc21` (single isomer, unassigned) [Compound 176] as the molecule, how does the EC50 (human GLP-1R receptor) read?
Its EC50 is 100 to 1000 nM.

What about the AUC [1] of the same molecule?
Its AUC is 500 to 2500 ng·h/mL.

What about the Cmax [1] of the same molecule?
The Cmax was less than 500 ng/mL.

And the half-life [1]?
The half-life was less than 90 min.

What about the bioavailability [1] of the same molecule?
The bioavailability was 25 to 50%.

For `Cn1c(CN2CCC(c3cccc4c3OC[C@@H](c3ccc(C#N)cc3F)O4)CC2)nc2c(OC(F)F)cc(C(=O)O)cc21` [Compound 300, (R)-2-((4-(2-(4-Cyano-2-fluorophenyl)-2,3-dihydrobenzo[b][1,4]dioxin-5-yl)piperidin-1-yl)methyl)-4-(difluoromethoxy)-1-methyl-1H-benzo[d]imidazole-6-carboxylic acid], which EC50 (human GLP-1R receptor) is on record?
Its EC50 is 100 to 1000 nM.

And the Emax (human GLP-1R receptor)?
Its Emax is greater than 85%.

What about the Cmax [1] of the same molecule?
Its Cmax is 2000 to 5000 ng/mL.

What about the half-life [1] of the same molecule?
Its half-life is no less than 150 min.

And the bioavailability [1]?
Its bioavailability is greater than 85%.

For `C[C@]1(c2ccc(Cl)cn2)Oc2cccc(C3CCN(Cc4nc5c(O)cc(C(=O)O)cc5n4Cc4cncs4)CC3)c2O1` [Compound 90, (S)-2-((4-(2-(5-chloropyridin-2-yl)-2-methylbenzo[d][1,3]dioxol-4-yl)piperidin-1-yl)methyl)-4-hydroxy-1-(thiazol-5-ylmethyl)-1H-benzo[d]imidazole-6-carboxylic acid], which EC50 (human GLP-1R receptor) is on record?
The EC50 was less than 10 nM.

And the Emax (human GLP-1R receptor)?
Its Emax is greater than 85%.

What about the AUC [1] of the same molecule?
Its AUC is less than 500 ng·h/mL.

What about the Cmax [1] of the same molecule?
Its Cmax is less than 500 ng/mL.

What about the half-life [1] of the same molecule?
The half-life was 90 to 150 min.

And the bioavailability [1]?
Its bioavailability is less than 25%.

Which EC50 (human GLP-1R receptor) does the source give for `COc1c(F)c(C(=O)O)cc2c1nc(CN1CCC(c3cccc(OCc4ccc(C#N)cc4F)n3)CC1)n2C` [Compound 301, 2-((4-(6-((4-Cyano-2-fluorobenzyl)oxy)pyridin-2-yl)piperidin-1-yl)methyl)-5-fluoro-4-methoxy-1-methyl-1H-benzo[d]imidazole-6-carboxylic acid] here?
The EC50 was 10 to 100 nM.

What about the Emax (human GLP-1R receptor) of the same molecule?
The Emax was greater than 85%.

And the AUC [1]?
Its AUC is 500 to 2500 ng·h/mL.

What about the Cmax [1] of the same molecule?
The Cmax was 500 to 1000 ng/mL.

And the half-life [1]?
The half-life was 90 to 150 min.

What about the bioavailability [1] of the same molecule?
Its bioavailability is 50 to 85%.

What does the source list for `[2H]C([2H])([2H])Oc1cc(C(=O)O)cc2c1nc(CN1CCC(c3cccc(OCc4ccc(Cl)cc4F)n3)CC1)n2C` [Compound 207, 2-((4-(6-((4-chloro-2-fluorobenzyl)oxy)pyridin-2-yl)piperidin-1-yl)methyl)-4-(methoxy-d3)-1-methyl-1H-benzo[d]imidazole-6-carboxylic acid]?
EC50 (human GLP-1R receptor): < 10 nM; Emax (human GLP-1R receptor): > 85%; Cmax [1]: > 5000 ng/mL; half-life [1]: 90 to 150 min; bioavailability [1]: 50 to 85%

Which EC50 (human GLP-1R receptor) does the source give for `COc1cc(C(=O)O)c(F)c2c1nc(CN1CCC(c3cccc(OCc4ccc(C#N)cc4F)n3)CC1)n2C` [Compound 303, 2-((4-(6-((4-Cyano-2-fluorobenzyl)oxy)pyridin-2-yl)piperidin-1-yl)methyl)-7-fluoro-4-methoxy-1-methyl-1H-benzo[d]imidazole-6-carboxylic acid] here?
The EC50 was 10 to 100 nM.

What about the Emax (human GLP-1R receptor) of the same molecule?
The Emax was greater than 85%.

What about the AUC [1] of the same molecule?
The AUC was 500 to 2500 ng·h/mL.

What about the Cmax [1] of the same molecule?
Its Cmax is 500 to 1000 ng/mL.

And the half-life [1]?
The half-life was no less than 150 min.

And the bioavailability [1]?
Its bioavailability is less than 25%.

For `COc1cc(C(=O)O)cc2c1nc(N(C)[C@H]1CC[C@H](c3cccc4c3O[C@@](C)(c3ccc(Cl)cn3)O4)CC1)n2C[C@@H]1CCO1` [Compound 80, 2-(((1S,4S)-4-((S)-2-(5-Chloropyridin-2-yl)-2-methylbenzo[d][1,3]dioxol-4-yl)cyclohexyl)(methyl)amino)-4-methoxy-1-(((S)-oxetan-2-yl)methyl)-1H-benzo[d]imidazole-6-carboxylic acid], which EC50 (human GLP-1R receptor) is on record?
The EC50 was less than 10 nM.

And the Emax (human GLP-1R receptor)?
Its Emax is greater than 85%.

What about the AUC [1] of the same molecule?
The AUC was less than 500 ng·h/mL.

And the Cmax [1]?
The Cmax was less than 500 ng/mL.

And the half-life [1]?
Its half-life is no less than 150 min.

And the bioavailability [1]?
The bioavailability was less than 25%.

For `COc1cc(C(=O)O)cc2c1nc(CN1CC[C@@H](c3cccc4c3O[C@@](C)(c3ccc(Cl)cn3)O4)[C@@H]3C[C@@H]31)n2C[C@@H]1CCO1` [Compound 89, 2-(((1S,5R,6S)-5-((S)-2-(5-Chloropyridin-2-yl)-2-methylbenzo[d][1,3]dioxol-4-yl)-2-azabicyclo[4.1.0]heptan-2-yl)methyl)-4-methoxy-1-(((S)-oxetan-2-yl)methyl)-1H-benzo[d]imidazole-6-carboxylic acid], which EC50 (human GLP-1R receptor) is on record?
The EC50 was less than 10 nM.

What about the Emax (human GLP-1R receptor) of the same molecule?
Its Emax is greater than 85%.

What about the AUC [1] of the same molecule?
The AUC was less than 500 ng·h/mL.

And the Cmax [1]?
The Cmax was less than 500 ng/mL.

What about the half-life [1] of the same molecule?
Its half-life is 90 to 150 min.

What about the bioavailability [1] of the same molecule?
The bioavailability was 25 to 50%.

Which results are given for `Cn1c(CN2CCC(c3cccc(OCc4ccc(Cl)cc4F)n3)CC2)nc2c(OCF)cc(C(=O)O)cc21` [Compound 225, 2-((4-(6-((4-Chloro-2-fluorobenzyl)oxy)pyridin-2-yl)piperidin-1-yl)methyl)-4-(fluoromethoxy)-1-methyl-1H-benzo[d]imidazole-6-carboxylic acid]?
EC50 (human GLP-1R receptor): < 10 nM; Emax (human GLP-1R receptor): > 85%; Cmax [1]: 2000 to 5000 ng/mL; half-life [1]: ≥ 150 min; bioavailability [1]: > 85%

For `COc1cc(C(=O)O)cc2c1nc(CN1CCC(c3cccc(OCc4ccc(Cl)c5c4OCC5)n3)CC1)n2C` [Compound 297, 2-((4-(6-((4-Chloro-2,3-dihydrobenzofuran-7-yl)methoxy)pyridin-2-yl)piperidin-1-yl)methyl)-4-methoxy-1-methyl-1H-benzo[d]imidazole-6-carboxylic acid], which EC50 (human GLP-1R receptor) is on record?
The EC50 was less than 10 nM.

What about the Emax (human GLP-1R receptor) of the same molecule?
The Emax was greater than 85%.

What about the Cmax [1] of the same molecule?
Its Cmax is 2000 to 5000 ng/mL.

What about the half-life [1] of the same molecule?
The half-life was 90 to 150 min.

And the bioavailability [1]?
The bioavailability was 25 to 50%.

For `COc1cc(Cl)ccc1COc1cccc(C2CCN(Cc3nc4c(OC(F)F)cc(C(=O)O)cc4n3C)CC2)n1` [Compound 226, 2-((4-(6-((4-Chloro-2-methoxybenzyl)oxy)pyridin-2-yl)piperidin-1-yl)methyl)-4-(difluoromethoxy)-1-methyl-1H-benzo[d]imidazole-6-carboxylic acid], which EC50 (human GLP-1R receptor) is on record?
The EC50 was less than 10 nM.

And the Emax (human GLP-1R receptor)?
Its Emax is greater than 85%.

What about the Cmax [1] of the same molecule?
The Cmax was greater than 5000 ng/mL.

And the half-life [1]?
Its half-life is no less than 150 min.

What about the bioavailability [1] of the same molecule?
Its bioavailability is greater than 85%.

What does the source list for `C[C@@]1(c2ccc(Cl)cn2)Oc2cccc(C3CCN(Cc4nc5c(OC6CC6)cc(C(=O)O)cc5n4Cc4cncs4)CC3)c2O1` [Compound 7, (R)-2-((4-(2-(5-chloropyridin-2-yl)-2-methylbenzo[d][1,3]dioxol-4-yl)piperidin-1-yl)methyl)-4-cyclopropoxy-1-(thiazol-5-ylmethyl)-1H-benzo[d]imidazole-6-carboxylic acid]?
EC50 (human GLP-1R receptor): 10 to 100 nM; Emax (human GLP-1R receptor): > 85%; AUC [1]: < 500 ng·h/mL; Cmax [1]: < 500 ng/mL; half-life [1]: ≥ 150 min; bioavailability [1]: < 25%

Which results are given for `COc1cc(C(=O)O)c(F)c2c1nc(CN1CCC(c3cccc(OCc4ccc(Cl)cc4F)n3)CC1)n2C` [Compound 302, 2-((4-(6-((4-Chloro-2-fluorobenzyl)oxy)pyridin-2-yl)piperidin-1-yl)methyl)-7-fluoro-4-methoxy-1-methyl-1H-benzo[d]imidazole-6-carboxylic acid]?
EC50 (human GLP-1R receptor): < 10 nM; Emax (human GLP-1R receptor): > 85%; AUC [1]: 2500 to 10000 ng·h/mL; Cmax [1]: 2000 to 5000 ng/mL; half-life [1]: ≥ 150 min; bioavailability [1]: 50 to 85%

Which results are given for `Cn1c(CN2CCC(c3cccc(OCc4ccc(C#N)cc4F)n3)CC2)nc2c(OC(F)F)cc(C(=O)O)cc21` [Compound 127, 2-((4-(6-((4-Cyano-2-fluorobenzyl)oxy)pyridin-2-yl)piperidin-1-yl)methyl)-4-(difluoromethoxy)-1-methyl-1H-benzo[d]imidazole-6-carboxylic acid]?
EC50 (human GLP-1R receptor): < 10 nM; Emax (human GLP-1R receptor): > 85%; AUC [1]: 2500 to 10000 ng·h/mL; Cmax [1]: 2000 to 5000 ng/mL; half-life [1]: < 90 min; bioavailability [1]: 50 to 85%

What does the source list for `C[C@]1(c2ccc(Cl)cn2)Oc2cccc(C3CCN(Cc4nc5c(OCCF)cc(C(=O)O)cc5n4C[C@@H]4CCO4)CC3)c2O1` [Compound 81, 2-((4-((S)-2-(5-Chloropyridin-2-yl)-2-methylbenzo[d][1,3]dioxol-4-yl)piperidin-1-yl)methyl)-4-(2-fluoroethoxy)-1-(((S)-oxetan-2-yl)methyl)-1H-benzo[d]imidazole-6-carboxylic acid]?
EC50 (human GLP-1R receptor): < 10 nM; Emax (human GLP-1R receptor): > 85%; AUC [1]: < 500 ng·h/mL; Cmax [1]: < 500 ng/mL; half-life [1]: ≥ 150 min; bioavailability [1]: < 25%
